Laboratory results: PMC12656219, “Cytotoxic Effects Induced by Combined Exposure of the Patulin, Ochratoxin A, and Acetamiprid to HK-2 and SK-N-SH Cell Lines” (Toxins, 2025)
Where two headings read alike, the source gives them in different places.

Tests used:
Caco-2 cells = settings: cited from earlier work
SK-N-SH cells [1] = assay: CCK-8 cell viability, individual and combined exposure (CI/DRI analysis), SK-N-SH cells; assay type: cell-based, human; settings: for IC50: Homo sapiens
Method: (§1) The cytotoxicity of individual contaminations was evaluated using dose–response curves, from which half-maximal inhibitory concentration (IC50) values were calculated. Contaminant concentration and exposure duration were identified as the primary determinants influencing cytotoxic responses. Concentrations employed in the binary and ternary combination assays were selected based on IC50 values obtained from individual treatments in HK-2 and SK-N-SH cell lines.
(§2) Due to the high binding affinity of OTA for serum proteins, all treatments were conducted in medium supplemented with 2% FBS to minimize potential interference with toxicological outcomes. For cytotoxicity evaluation, 100 μL of cell suspension (8 × 10^3 cells/well) was seeded into 96-well plates. Upon reaching approximately 80% confluence, the culture medium was replaced with fresh medium containing varying concentrations of PAT, OTA, ACM, or their combinations. Cells were then incubated for 24 or 48 h, after which cell viability was assessed. Concentrations used for individual mycotoxin exposures are provided in Table S1, while those for binary and ternary mixture exposures are listed in Table S2.
(§3) Cells were diluted to a density of 8 × 10^3 cells/well and seeded in 96-well culture plates. After 24 h incubation, all cells were exposed to various concentrations of individual or combined contaminants and allowed to grow in an incubator for 24 h and 48 h, respectively. The cytotoxicity of the two different cell lines was determined using a CCK-8 kit according to the manufacturer’s instructions. After treatment, 10 μL CCK-8 solution was added to each well (10% culture volume) and incubated for 2 h at 37 °C. Absorbance values (A) were measured at 450 nm using a microplate reader (Thermo Fisher Scientific, Waltham, MA, USA). All treatments were performed in six replicates, and cell activity was calculated as follows: Cell Viability(%)=Aexperiment −A(blank)/Acontrol−A(blank)× 100
(§4) The dose–effect relationship for PAT, OTA, and ACM was calculated using the […] proposed by Chou and Talalay. fa/fu=D/Dm^m
(§5) D was the concentration of the contamination, fa was the cell proliferation inhibition rate, and fu was the unaffected fraction (fu = 1 − fa). Dm was the median effect dose for the 50% inhibition of cell proliferation. m was the coefficient indicating the shape of the dose–effect relationship (m = 1, m > 1, and m < 1 each indicated hyperbolic, sigmoidal, and flat sigmoidal dose–effect curves). The method employed the Dm parameter to measure the cytotoxicity of individual contamination.
(§6) When the composition of contaminations extended to binary or ternary, the interactions of multiple contaminations were assayed by means of combination index model (CI) based on the median effect principle, as the CI values calculated according to a generic formula: nCIx=∑j=1n(D)j/(Dx)j
(§7) ^n(CI)x referred to n kind of contaminant combined cell inhibition rate for x% of composite index, (D)j was referred to the joint action of n type of toxin to a total dose of x% cell inhibition rate, and (Dx)j referred to the combination of each contamination effect itself when dose of x% cell inhibition rate. Overall, the types of combined effects represented by CI = 0.9–1.1, CI < 0.9, and CI > 1.1 were additive, synergistic, and antagonistic, respectively.
(§8) In addition, the impact of contaminants on the combined effects was assessed using the dose reduction index (DRI). DRI indicated a multiplicative reduction in the dose required to produce the same effect when the contaminant was mixed compared to when used alone. […] The DRI was calculated as follows: n(CI)x=∑j=1n(D)j/(Dm)j=∑j=1n1/(DRI)j or (DRI)j=(D)j/(Dm)j
(§9) The IC50 values of the three different contaminations exposed to the two cell lines was calculated by GraphPad Prism 9.4.0 software. […]

HK-2 cells = assay: CCK-8 cell viability, individual and combined exposure (CI/DRI analysis), HK-2 cells; assay type: cell-based, human; settings: for IC50: Homo sapiens; for DRI (dose reduction index): in PAT+OTA+ACM group, from low to high doses
Method: as §1, §2, §3, §4, §5, §6, §7, §8, §9

SK-N-SH cells [2] = settings: 24 h; cited from earlier work
[3] = SK-N-SH, 24 h, in PAT+OTA group
[4] = SK-N-SH cells, 24 h, CCK-8, mean ± SEM, n = 6, read-out: IC50
[5] = SK-N-SH cells, 48 h, CCK-8, mean ± SEM, n = 6, read-out: IC50
[6] = HK-2 cells, 24 h, CCK-8, mean ± SEM, n = 6, read-out: IC50
[7] = HK-2 cells, 48 h, CCK-8, mean ± SEM, n = 6, read-out: IC50

C[C@@H]1Cc2c(Cl)cc(C(=O)N[C@@H](Cc3ccccc3)C(=O)O)c(O)c2C(=O)O1 [OTA, ochratoxin A]
IC50 (Caco-2 cells): 145 µM
IC50 (SK-N-SH cells [1]; SK-N-SH, 24 h): 7 ± 0.357 µg/mL
IC50 (SK-N-SH cells [1]; SK-N-SH, 48 h): 4.5 ± 0.415 µg/mL
DRI (dose reduction index) (SK-N-SH cells [1]; [3]): greater than 1
DRI (dose reduction index) (SK-N-SH cells [1]; SK-N-SH, 48 h, in OTA+ACM group, Fa > 0.5): greater than 1
IC50 (HK-2 cells; HK-2, 24 h): 2.5 ± 0.049 µg/mL
IC50 (HK-2 cells; HK-2, 48 h): 1 ± 0.021 µg/mL

C/C(=N\C#N)N(C)Cc1ccc(Cl)nc1 [ACM, acetamiprid]
IC50 (SK-N-SH cells [2]): ~10600 µM
IC50 (SK-N-SH cells [1]; [4]): 700 ± 34.4 µg/mL
IC50 (SK-N-SH cells [1]; [5]): 550 ± 31.6 µg/mL
DRI (dose reduction index) (HK-2 cells; HK-2, 24 h): greater than 1
IC50 (HK-2 cells; [6]): 1160 ± 38.7 µg/mL
IC50 (HK-2 cells; [7]): 900.2 ± 4.1 µg/mL

O=C1C=C2C(=CCOC2O)O1 (centres unmarked) [PAT, Patulin]
IC50 (Caco-2 cells): 16 µM
IC50 (SK-N-SH cells [1]; [4]): 0.5 ± 0.024 µg/mL
IC50 (SK-N-SH cells [1]; [5]): 0.25 ± 0.001 µg/mL
DRI (dose reduction index) (SK-N-SH cells [1]; [3]): greater than 1
DRI (dose reduction index) (HK-2 cells; HK-2, 24 h): greater than 1
IC50 (HK-2 cells; [6]): 0.5 ± 0.005 µg/mL
IC50 (HK-2 cells; [7]): 0.4 ± 0.006 µg/mL
